Laboratory results from US20240042019A1, “OPTIMIZED TLR7 LIGANDS AND USES THEREOF” (Genentech, Inc., priority 2021, published 2024).
Where two headings read alike, the source gives them in different places. Oligonucleotides are written 5' to 3', each unit as a sugar letter and its base; * is a phosphorothioate linkage, no mark a phosphodiester; rarer units and linkages stand in square brackets, end groups in braces. Plain capitals give the bases only. m = 2'-O-methyl; r = 2'-OH (RNA); f = 2'-fluoro

Assays:
Type in all cases: cell-based
TLR8 [1] = target: T1, TLR8 (Homo sapiens, UniProt Q9NR97); test: PBMC stimulation with p-L-arginine-complexed RNA ligands, TNF-α ELISA; conditions: human PBMCs, p-L-arginine complexes with 2′3′ cyclic GMP 5 μg/ml, ORN 0.6 μg/ml (FIG. 12)
T1 construct: Peripheral blood mononuclear cells (PBMCs) were obtained from buffy coats from healthy adult donors; endogenous in cells; host or cells: primary human PBMCs from healthy donor buffy coats (TLR8 in monocytes)
T1 sequence (Q9NR97 27-1041): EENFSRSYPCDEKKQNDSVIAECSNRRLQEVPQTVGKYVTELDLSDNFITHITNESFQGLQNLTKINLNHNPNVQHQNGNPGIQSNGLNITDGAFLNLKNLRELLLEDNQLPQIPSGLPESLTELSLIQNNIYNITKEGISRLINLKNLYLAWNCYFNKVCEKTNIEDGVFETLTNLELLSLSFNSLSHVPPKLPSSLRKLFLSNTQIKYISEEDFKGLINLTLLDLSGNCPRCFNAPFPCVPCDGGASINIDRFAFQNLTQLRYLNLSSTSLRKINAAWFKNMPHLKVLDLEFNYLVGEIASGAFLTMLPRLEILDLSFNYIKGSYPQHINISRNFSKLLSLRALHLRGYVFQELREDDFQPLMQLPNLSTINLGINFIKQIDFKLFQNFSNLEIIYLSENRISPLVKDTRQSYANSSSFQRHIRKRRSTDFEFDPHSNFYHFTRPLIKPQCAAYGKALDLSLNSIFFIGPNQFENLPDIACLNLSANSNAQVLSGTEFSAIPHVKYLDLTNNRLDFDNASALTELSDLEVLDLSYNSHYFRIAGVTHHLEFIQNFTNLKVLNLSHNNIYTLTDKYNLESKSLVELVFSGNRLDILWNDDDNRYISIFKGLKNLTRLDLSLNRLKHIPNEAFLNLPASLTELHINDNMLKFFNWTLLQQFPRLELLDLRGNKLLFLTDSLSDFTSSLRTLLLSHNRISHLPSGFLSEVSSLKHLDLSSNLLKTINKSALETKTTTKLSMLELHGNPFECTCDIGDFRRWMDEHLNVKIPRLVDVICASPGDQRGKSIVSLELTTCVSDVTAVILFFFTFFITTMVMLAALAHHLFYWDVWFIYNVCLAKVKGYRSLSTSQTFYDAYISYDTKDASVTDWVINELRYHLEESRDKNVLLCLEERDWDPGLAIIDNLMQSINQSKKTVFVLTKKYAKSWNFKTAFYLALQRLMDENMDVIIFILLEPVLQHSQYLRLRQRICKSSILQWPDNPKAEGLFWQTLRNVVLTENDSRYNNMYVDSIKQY
Protocol: (§1) Peripheral blood mononuclear cells (PBMCs) were obtained from buffy coats from healthy adult donors. Buffy coat samples were first diluted with an equal volume of phosphate-buffered saline (PBS). Next, PBMCs were isolated via density gradient centrifugation with Lymphoprep density gradient media ([…] Technologies) and SepMate-50 tubes ([…] Technologies). Samples were centrifuged at 1000 g for 15 minutes. After centrifugation, the upper layers were collected by pouring into a new tube, diluted with PBS, and centrifuged at 450×g for 5 minutes. To lyse red blood cells, cell pellets were resuspended with 10 mL Ammonium-Chloride-Potassium (ACK) Lysis Buffer and incubated for 8 minutes at room temperature. After lysis, cells were washed with PBS and passed through two 70 μm cell strainers. Viable cell counts were determined with a Vi-CELL cell counter (Beckman Coulter). […] Guanosine was added between about 20 and about 30 minutes before the addition of poly-[…])-complexed RNA. […] After mixing by pipetting up and down, the reaction was incubated for 10 minutes, pipetted up and down again, and then added to the cells. In some experiments, RNA ligands were used at a final concentration of 0.6 μg/ml. Where indicated as “+2'3' cGMP”, 2'3' cyclic GMP purchased from eMolecules was complexed together with the RNA ligands. The final concentration of 2'3' cyclic GMP was 5 μg/ml. p-L-arginine was adjusted accordingly to keep the mass ratio of nucleic acid:p-L-arginine constant. Cell culture supernatants were collected 15-18 hours after stimulation and stored at -80° C. Cytokines in cell culture supernatants were detected with the BD OptEIA human TNF ELISA Set (BD Biosciences), and either Invitrogen IFN alpha Human Matched Antibody Pair kit (Thermo Fisher Scientific) or Human IFN Alpha Multi-Subtype ELISA Kit (PBL Assay Science). To test the effects of the RNA ligands described in Example 1 on TLR7 and TLR8 activation, PBMCs were stimulated with the RNA ligands using p-L-arginine complex delivery, delivery with DOTAP, or delivery without a carrier. Activity of TLR7 and TLR8 was assessed based on measurements of IFN-α or TNF-α by enzyme-linked immunosorbent assays (ELISA). In this setting, as depicted in FIG. 6, IFN-α induced by small RNAs is derived from TLR7 expressed by pDCs, or from RIG-I expressed by monocytes. In contrast, TNF-α secretion is derived from monocytes and serves as an indication of TLR8 activation. As shown in this figure, the p-L-arginine delivery restricts most of the activation to TLRs. First, the effects of the RNA ligands on TLR7 and TLR8 activation using p-L-arginine complex delivery were tested.

TLR7 [2] = target: T2, TLR7 (Homo sapiens, UniProt Q9NYK1); test: PBMC stimulation with p-L-arginine-complexed RNA ligands, IFN-α ELISA; conditions: human PBMCs; for IFN-α secretion when co-delivered with 2′3′ cGMP: p-L-arginine complexes with 2′3′ cyclic GMP 5 μg/ml, ORN 0.6 μg/ml (FIG. 12); for IFN-α secretion (TLR7 activity): p-L-arginine delivery, 16 hours, ELISA (FIG. 7)
T2 construct: Peripheral blood mononuclear cells (PBMCs) were obtained from buffy coats from healthy adult donors; endogenous in cells; host or cells: primary human PBMCs from healthy donor buffy coats (TLR7 expressed by pDCs)
T2 sequence (Q9NYK1 27-1049): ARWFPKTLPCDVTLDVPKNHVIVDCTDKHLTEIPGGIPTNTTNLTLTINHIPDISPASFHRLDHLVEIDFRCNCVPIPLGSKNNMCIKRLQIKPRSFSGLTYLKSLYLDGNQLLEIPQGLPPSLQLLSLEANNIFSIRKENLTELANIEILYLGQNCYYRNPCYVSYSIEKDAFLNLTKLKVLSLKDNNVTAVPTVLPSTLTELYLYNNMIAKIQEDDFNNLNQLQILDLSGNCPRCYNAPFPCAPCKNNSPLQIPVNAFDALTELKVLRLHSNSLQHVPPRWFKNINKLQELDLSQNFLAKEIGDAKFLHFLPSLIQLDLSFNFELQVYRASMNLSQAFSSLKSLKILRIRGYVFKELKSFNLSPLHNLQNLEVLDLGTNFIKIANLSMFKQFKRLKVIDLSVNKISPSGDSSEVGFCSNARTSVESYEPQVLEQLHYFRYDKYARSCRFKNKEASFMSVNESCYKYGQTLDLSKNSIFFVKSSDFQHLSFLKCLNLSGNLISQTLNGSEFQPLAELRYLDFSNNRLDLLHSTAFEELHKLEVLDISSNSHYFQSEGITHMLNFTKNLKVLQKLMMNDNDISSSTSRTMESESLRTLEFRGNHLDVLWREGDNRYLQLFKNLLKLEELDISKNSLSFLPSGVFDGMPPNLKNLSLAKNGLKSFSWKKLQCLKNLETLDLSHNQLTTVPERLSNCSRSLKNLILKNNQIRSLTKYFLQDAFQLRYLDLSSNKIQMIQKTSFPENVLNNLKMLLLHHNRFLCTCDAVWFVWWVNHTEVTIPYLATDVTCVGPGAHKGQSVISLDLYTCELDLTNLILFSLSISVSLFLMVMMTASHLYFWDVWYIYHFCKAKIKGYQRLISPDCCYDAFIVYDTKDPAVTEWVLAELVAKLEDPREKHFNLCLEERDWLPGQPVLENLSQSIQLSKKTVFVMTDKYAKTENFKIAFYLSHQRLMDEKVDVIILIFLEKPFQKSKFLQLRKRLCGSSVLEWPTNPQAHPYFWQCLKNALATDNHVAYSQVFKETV
Protocol: as §1

TLR8 [3] = target: T1, TLR8; test: PBMC stimulation with DOTAP-complexed RNA ligands, TNF-α ELISA
TLR7 [4] = target: T2, TLR7; test: PBMC stimulation with DOTAP-complexed RNA ligands, IFN-α ELISA
[5] = human PBMCs, DOTAP delivery, 0.6 μg/ml and 2 μg/ml, 16 hours (FIGS. 10A-10B)
[6] = human PBMCs, DOTAP delivery, 2 μg/ml (FIG. 10B)

| Substance | TNF-α secretion when co-delivered with 2′3′ cyclic GMP (TLR8 [1]) | IFN-α secretion when co-delivered with 2′3′ cGMP (TLR7 [2]) | TNF-α secretion (TLR8 activity) (TLR8 [3]; [5]) | IFN-α secretion (TLR7 activity) (TLR7 [4]; [5]) | IFN-α secretion (TLR7 activity) (TLR7 [2]) | other results |
| --- | --- | --- | --- | --- | --- | --- |
| C-C-mU-U-C-mU-U-C-mU-U-C-mU-U-C-mU-U-C-mU-U-C (rCrCmUrUrCmUrUrCmUrUrCmUrUrCmUrUrCmUrUrC) [ORN7010, 2′O-methyl-modified version of ORN7009] | little to no measurable TNF-α | robust IFN-a induction | reduced both TLR8 and TLR7 activation | reduced both TLR8 and TLR7 activation | – | – |
| C-G-G-fC-U-C-G-G-C-A-G-A-A-G-C-C-G-G-G-C-C (rCrGrGfCrUrCrGrGrCrArGrArArGrCrCrGrGrGrCrC; hairpin) [ORN7023F, 2′-fluoro-C-modified ORN7023] | – | – | – | – | further increasing the activity | TLR7 selectivity (IFN-α versus TNF-α secretion) (TLR7 [2]; p-L-arginine delivery (FIG. 7)): maintained TLR7 selectivity |
| U*C*U*C*U*C*U*C*U*C*U*C*U*C*U*C*U*C*U*C (rU*rC*rU*rC*rU*rC*rU*rC*rU*rC*rU*rC*rU*rC*rU*rC*rU*rC*rU*rC) [ORN7008] | – | – | further increased TLR8 activation | – | – | – |
| C-C-fU-U-C-fU-U-C-fU-U-C-fU-U-C-fU-U-C-fU-U-C (rCrCfUrUrCfUrUrCfUrUrCfUrUrCfUrUrCfUrUrC) [ORN7011, 2′-fluoro-modified version of ORN7009] | little to no measurable TNF-α | robust IFN-a induction | – | – | – | TNF-α secretion (TLR8 activity) (TLR8 [3]; [6]): without TLR8 activity; IFN-α secretion (TLR7 activity) (TLR7 [4]; [6]): had TLR7-activity |
| C-A-G-A-C-C*U*U*C-C-A-G-A-C-C*U*U*C (CAGACCUUCCAGACCUUC; linkages o5 s3 o6 s3 (s phosphorothioate, o phosphodiester), sugars by position not given here) [ORN7004] | – | – | – | – | – | TNF-α secretion (TLR8 activity) (TLR8 [3]): markedly increased TLR8 activity; IFN-α secretion (TLR7 activity) (TLR7 [4]): mildly increased TLR7 activity |
| C-C-G-A-G-C-C-G-C-fU-U*fU-U*C-C-C (rCrCrGrArGrCrCrGrCfUrU*fUrU*rCrCrC) [ORN7019, 2′-fluoro-modified and phosphodiester-linked version of ORN7013] | – | – | – | – | – | TNF-α secretion (TLR8 activity) (TLR8 [3]; [6]): also had TLR8-activity; IFN-α secretion (TLR7 activity) (TLR7 [4]; human PBMCs, DOTAP delivery, 0.6 μg/ml (FIG. 10A)): selective TLR7 activation |
| C-C-G-A-G-C-C-G-C*U*U*U*U*C-C-C (rCrCrGrArGrCrCrGrC*rU*rU*rU*rU*rCrCrC) [ORN7022, phosphodiester-linked version of ORN7013] | – | – | activated both TLR7 and TLR8 | activated both TLR7 and TLR8 | – | – |
| C*G*G*C*U*C*G*G*C*A*G*A*A*G*C*C*G*G*G*C*C (rC*rG*rG*rC*rU*rC*rG*rG*rC*rA*rG*rA*rA*rG*rC*rC*rG*rG*rG*rC*rC) [ORN7024] | – | – | – | – | reduced activity | – |
| UCUCUCUCUCUCUCUCUCUC (UCUCUCUCUCUCUCUCUCUC; unmodified RNA) [ORN7005, derived from pU1C of Zhang et al., 2018, reference compound] | – | – | activated TLR8 | activated TLR8 rather than TLR7 | no or only minor IFN-α secretion | IFN-α response to RNA ligand alone (no 2′3′ cGMP) (TLR7 [2]; p-L-arginine alone, ORN 0.6 μg/ml, one donor (FIGS. 12, 16A-16B)): unexpectedly high IFN-α response |
| C-A-G-A-C-C-U-U-C-C-A-G-A-C-C-U-U-C (CAGACCUUCCAGACCUUC; unmodified RNA) [ORN7001, de novo designed ligand] | – | – | induced TLR7 and TLR8 activity | induced TLR7 and TLR8 activity | no or only minor IFN-α secretion | – |
| U-fC-U-fC-U-fC-U-fC-U-fC-U-fC-U-fC-U-fC-U-fC-U-C (rUfCrUfCrUfCrUfCrUfCrUfCrUfCrUfCrUfCrUrC) [ORN7007, 2′-fluoro-modified version of ORN7005] | little to no measurable TNF-α | robust IFN-a induction | also reduced activity | also reduced activity | – | – |
| U-mC-U-mC-U-mC-U-mC-U-mC-U-mC-U-mC-U-mC-U-mC-U-C (rUmCrUmCrUmCrUmCrUmCrUmCrUmCrUmCrUmCrUrC) [ORN7006, 2′O-methyl-modified version of ORN7005] | little to no measurable TNF-α | robust IFN-a induction | reduced both TLR8 and TLR7 activation | reduced both TLR8 and TLR7 activation | – | – |
